Laboratory results published in the supplement of paper PMC10307832.

Columns and labels:
Assay in all cases: relative viability (nuclei count vs DMSO), 5 days (fraction); higher = more cells survive
[1] = compound: C(C(=O)C(=O)O)Br [Bromopyruvate] + CS(=O)(=O)CCNCc1ccc(-c2ccc3ncnc(Nc4ccc(OCc5cccc(F)c5)c(Cl)c4)c3c2)o1 [Lapatinib] (partner 2 µM)
Outline: (§1)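 Nuclei were stained with Hoechst during a one-step fixation (final 0.05% Triton X-100, 1% formaldehyde, 1 ug/ml Hoechst) carried out 5 days after dosing, then counted on 4× images. The cells, lung cancer lines in 1536-well plates, had been dosed by pin tool the day after seeding with one drug alone or a fixed anchor-drug dose plus five library-drug doses (not always all listed) in √10 steps. Relative viability is the nuclei count in treated wells divided by that in vehicle wells, and each value is the median of duplicate plates.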

[2] = compound: C(C(=O)C(=O)O)Br [Bromopyruvate] + CS(=O)(=O)N1CCN(Cc2cc3nc(-c4cccc5[nH]ncc45)nc(N4CCOCC4)c3s2)CC1 [Pictilisib] (partner 1 µM)
Outline: as §1

Bicalutamide + Lapatinib = compound: CC(O)(CS(=O)(=O)c1ccc(F)cc1)C(=O)Nc1ccc(C#N)c(C(F)(F)F)c1 [Bicalutamide] + CS(=O)(=O)CCNCc1ccc(-c2ccc3ncnc(Nc4ccc(OCc5cccc(F)c5)c(Cl)c4)c3c2)o1 [Lapatinib] (partner 2 µM)
Outline: as §1

Bicalutamide + Alpelisib = compound: CC(O)(CS(=O)(=O)c1ccc(F)cc1)C(=O)Nc1ccc(C#N)c(C(F)(F)F)c1 [Bicalutamide] + Cc1nc(NC(=O)N2CCC[C@H]2C(N)=O)sc1-c1ccnc(C(C)(C)C(F)(F)F)c1 [Alpelisib] (partner 2 µM)
Outline: as §1

For NCI-H2023, the relative viability ([1]; first compound 1 µM) was 0.803, the relative viability ([1]; first compound 3.162 µM) was 0.922 and the relative viability ([1]; first compound 10 µM) was 0.743. For the same cell line, the relative viability ([1]; first compound 31.62 µM) was 0.877, the relative viability ([1]; first compound 100 µM) was 0.793 and the relative viability ([2]; first compound 1 µM) was 0.236. The relative viability ([2]; first compound 3.162 µM) was 0.237, the relative viability ([2]; first compound 10 µM) was 0.221 and the relative viability ([2]; first compound 31.62 µM) was 0.209. It also gave a relative viability ([2]; first compound 100 µM) of 0.25, a relative viability (Bicalutamide + Lapatinib; first compound 0.08 µM) of 0.727 and a relative viability (Bicalutamide + Lapatinib; first compound 0.253 µM) of 0.866. The relative viability (Bicalutamide + Lapatinib; first compound 0.8 µM) was 1.21, the relative viability (Bicalutamide + Lapatinib; first compound 2.53 µM) was 0.648 and the relative viability (Bicalutamide + Alpelisib; first compound 0.08 µM) was 0.593. For the same cell line, the relative viability (Bicalutamide + Alpelisib; first compound 0.253 µM) was 0.59, the relative viability (Bicalutamide + Alpelisib; first compound 0.8 µM) was 0.555 and the relative viability (Bicalutamide + Alpelisib; first compound 2.53 µM) was 0.608.
